Source: patent publication US12661410B2, “Compounds for targeted degradation of RET” (C4 Therapeutics, Inc., priority 2020, dated 2026)
Where a chain is given by its changes, count along the chain named. Read-outs that look alike come from different tables or passages of the source.

Key:
[1] = target: T1, RET(KD: 658-1114 G810R) (Homo sapiens, UniProt P07949, G810R); test: HiBiT-Degradation, RET G810R degradation assay (Nano-Glo HiBiT Lytic), 293T.165 cells; assay type: cell-based; conditions: for Emax / DC50: 6.0 hours; for Emax: read-out: 293T.165 RET(KD: 658-1114 G810R) 6.0 hours (Emax); for DC50: read-out: 293T.165 RET(KD: 658-1114 G810R) 6.0 hours (DC50)
T1 construct: 658-1114; expressed in transfected cells; host or cells: 293T.165 (293T cells, generated in-house)
T1 sequence (P07949 658-1114 G810R): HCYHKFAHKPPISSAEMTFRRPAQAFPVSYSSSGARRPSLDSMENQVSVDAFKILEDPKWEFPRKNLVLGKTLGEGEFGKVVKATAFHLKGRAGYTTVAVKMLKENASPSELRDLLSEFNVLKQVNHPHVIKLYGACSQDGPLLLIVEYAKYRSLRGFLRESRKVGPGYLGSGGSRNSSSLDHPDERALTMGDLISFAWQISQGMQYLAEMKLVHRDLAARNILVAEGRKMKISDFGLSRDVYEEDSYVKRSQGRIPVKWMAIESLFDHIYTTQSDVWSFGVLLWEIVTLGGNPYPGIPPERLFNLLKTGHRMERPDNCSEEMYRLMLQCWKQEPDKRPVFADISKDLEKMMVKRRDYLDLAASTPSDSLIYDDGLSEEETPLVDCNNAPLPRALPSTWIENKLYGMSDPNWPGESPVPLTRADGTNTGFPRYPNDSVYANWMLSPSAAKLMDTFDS
Text: (§1) Dulbecco's modified Eagle medium (DMEM) no-phenol red media and fetal bovine serum (FBS) were purchased from Gibco (Grand Island, NY, USA). Cell lines ectopically expressing wild-type or G810R RET kinase domain fused with a HiBiT tag were generated in-house (293T. 144 and 293T. 165, respectively). Cell culture flasks and 384-well microplates were acquired from VWR (Radnor, PA, USA). The Nano-Glo® HiBiT Lytic Assay System was purchased from Promega (Madison, WI, USA).
(§2) RET wild-type (WT) and G810R degradation were assessed using the Nano-Glo® HiBiT Lytic assay (Promega, Medison, WI, USA). To determine the effect of degraders on protein levels, cells were plated in 384-well plates and treated with compounds of interest in duplicates for 6 hours using an 11-point half-log dilution series, with the highest dose set at 10 μM. Cell lysis and addition of the Nano-Glo® HiBiT Lytic Assay reagents was then performed. Luminescence signal was measured using an EnVision™ Multimode plate reader (Perkin Elmer, Santa Clara, CA, USA). The half-maximal degradation concentration (DC50) and % remaining protein (Emax) was then derived from the dose-response curves.

[2] = target: T2, RET (658-1114) (Homo sapiens, UniProt P07949); test: HiBiT-Degradation, RET wild-type degradation assay (Nano-Glo HiBiT Lytic), 293T.144 cells; assay type: cell-based; conditions: for Emax / DC50: 6.0 hours; for Emax: read-out: 293T.144 RET (658-1114) 6.0 hours (Emax); for DC50: read-out: 293T.144 RET (658-1114) 6.0 hours (DC50)
T2 construct: 658-1114; expressed in transfected cells; host or cells: 293T.144 (293T cells, generated in-house)
T2 sequence (P07949 658-1114): T1 sequence (P07949 658-1114 G810R) with R153G
Text: as §1, §2

[3] = half-maximal degradation concentration

SMILES | 293T.165 RET(KD: 658-1114 G810R) 6.0 hours (IP) [nM] [1] | Emax ([1]; % remaining protein) [%] | DC50 [1, 3] [µM] | 293T.144 RET (658-1114) 6.0 hours (IP) [nM] [2] | Emax ([2]; % remaining protein) [%] | DC50 [2, 3] [µM] | 293T.165 RET(KD: 658-1114 G810R) 6.0 hours (Emax) ([1]; HiBiT-Degradation) | 293T.165 RET(KD: 658-1114 G810R) 6.0 hours (IP) [nM] ([1]; HiBiT-Degradation) | DC50 ([1]; HiBiT-Degradation) [µM] | 293T.144 RET (658-1114) 6.0 hours (IP) [nM] ([2]; HiBiT-Degradation) | DC50 ([2]; HiBiT-Degradation) [µM] | Emax ([2]; HiBiT-Degradation) [%] | 293T.165 RET(KD: 658-1114 G810R) 6.0 hours (Emax) ([1]; % remaining protein) | 293T.165 RET(KD: 658-1114 G810R) 6.0 hours (DC50) [nM] [1, 3] | 293T.144 RET (658-1114) 6.0 hours (Emax) ([2]; % remaining protein)
CCC1(C(=O)NC[C@H]2C[C@@H](F)C2)CCN(c2ccc(-c3nc(-c4cnn([C@H]5CC[C@H](N6CCN(c7ccc(NC8CCC(=O)NC8=O)cc7F)CC6)CC5)c4)cn4ncc(C#N)c34)cn2)CC1 (stereo partly drawn) [Compound 210, 1-[5-[3-cyano-6-[1-[4-[4-[4-[(2,6-dioxo-3-piperidyl)amino]-2-fluoro-phenyl]piperazin-1-yl]cyclohexyl]pyrazol-4-yl]pyrazolo[1,5-a]pyrazin-4-yl]-2-pyridyl]-4-ethyl-N-[(3-fluorocyclobutyl)methyl]piperidine-4-carboxamide] | ++++ (<50 nM = ++++) | < 30 | < 0.1 | ++++ (<50 nM = ++++) | < 30 | < 0.05 | – | – | – | – | – | – | – | – | –
CCC1(C(=O)NC(C)C)CCN(c2ccc(-c3cc(-c4ccc(N5CCN(C(=O)CN6CCC(c7ccc8c(N9CCC(=O)NC9=O)nn(C)c8c7)CC6)CC5)cc4)cn4ncc(C#N)c34)cn2)CC1 [Compound 64, 1-[5-[3-cyano-6-[4-[4-[2-[4-[3-(2,4-dioxohexahydropyrimidin-1-yl)-1-methyl-indazol-6-yl]-1-piperidyl]acetyl]piperazin-1-yl]phenyl]pyrazolo[1,5-a]pyridin-4-yl]-2-pyridyl]-4-ethyl-N-isopropyl-piperidine-4-carboxamide] | – | < 30 | < 0.1 | – | – | – | ++++ (< 30% = ++++) | ++++ (< 50 nM = ++++) | < 0.1 | ++++ (< 50 nM = ++++) | < 0.05 | < 30 | – | – | –
CCC1(C(=O)NC2CCOCC2)CCN(c2ccc(-c3nc(-c4cnn([C@H]5CC[C@H](N6CCC(c7ccc(N[C@@H]8CCC(=O)NC8=O)cc7F)CC6)CC5)c4)cn4ncc(C#N)c34)cn2)CC1 (stereo in doubt) [Compound 143, 1-(5-(3-cyano-6-(1-((1R,4r)-4-(4-(4-(((R)-2,6-dioxopiperidin-3-yl)amino)-2-fluorophenyl)piperidin-1-yl)cyclohexyl)-1H-pyrazol-4-yl)pyrazolo[1,5-a]pyrazin-4-yl)pyridin-2-yl)-4-ethyl-N-(tetrahydro-2H-pyran-4-yl)piperidine-4-carboxamide] | ++++ (<50 nM = ++++) | < 30 | < 0.05 | ++++ (<50 nM = ++++) | < 30 | < 0.05 | – | – | – | – | – | – | – | – | –
CCC1(C(=O)NC(C)C)CCN(c2ccc(-c3nc(-c4cnn(C5CCC(CCN6CCC(c7ccc(NC8CCC(=O)NC8=O)cc7F)CC6)CC5)c4)cn4ncc(C#N)c34)cn2)CC1 (stereo not drawn) [Compound 181, 1-(5-(3-Cyano-6-(1-((1r, 4r)-4-(2-(4-(4-((2,6-dioxopiperidin-3-yl)amino)-2-fluorophenyl)piperidin-1-yl)ethyl)cyclohexyl)-1H-pyrazol-4-yl)pyrazolo[1,5-a]pyrazin-4-yl)pyridin-2-yl)-4-ethyl-N-isopropylpiperidine-4-carboxamide] | ++++ (<50 nM = ++++) | – | – | ++++ (<50 nM = ++++) | – | < 0.05 | – | – | – | – | – | – | ++++ (<30% = ++++) | ++++ (<50 nM = ++++) | ++++ (<30% = ++++)
N#Cc1cnn2cc(-c3cnn([C@H]4CC[C@@H](N5CCN(c6c(F)cc(NC7CCC(=O)NC7=O)cc6F)CC5)CC4)c3)nc(-c3ccc(N4CCC5(CC4)CCN5c4nccc(Cl)n4)nc3)c12 (single isomer, unassigned) [Compound 204, 4-(6-(1-(4-Chloropyrimidin-2-yl)-1,7-diazaspiro[3.5]nonan-7-yl)pyridin-3-yl)-6-(1-((1s, 4s)-4-(4-(4-((2,6-dioxopiperidin-3-yl)amino)-2,6-difluorophenyl)piperazin-1-yl)cyclohexyl)-1H-pyrazol-4-yl)pyrazolo[1,5-a]pyrazine-3-carbonitrile] | +++ (<100 nM = +++) | < 30 | < 0.1 | ++++ (<50 nM = ++++) | < 30 | < 0.05 | – | – | – | – | – | – | – | – | –
CCC1(C(=O)NC2CCC2)CCN(c2ccc(-c3nc(-c4cnn([C@H]5CC[C@H](N6CCC(c7ccc8c(c7)CCN8[C@@H]7CCC(=O)NC7=O)CC6)CC5)c4)cn4ncc(C#N)c34)cn2)CC1 (single isomer, unassigned) [Compound 129] | ++++ (<50 nM = ++++) | < 30 | < 0.05 | ++++ (<50 nM = ++++) | < 30 | < 0.05 | – | – | – | – | – | – | – | – | –
CCC1(C(=O)NC2CCC2)CCN(c2ccc(-c3nc(-c4cnn([C@H]5CC[C@H](CN6CCN(c7ccc(N[C@H]8CCC(=O)NC8=O)cc7F)CC6)CC5)c4)cn4ncc(C#N)c34)cn2)CC1 [Compound 189, 1-[5-[3-cyano-6-[1-[4-[[4-[4-[[(3S)-2,6-dioxo-3-piperidyl]amino]-2-fluoro-phenyl]piperazin-1-yl]methyl]cyclohexyl]pyrazol-4-yl]pyrazolo[1,5-a]pyrazin-4-yl]-2-pyridyl]-N-cyclobutyl-4-ethyl-piperidine-4-carboxamide] | ++++ (<50 nM = ++++) | < 30 | < 0.1 | ++++ (<50 nM = ++++) | < 30 | < 0.05 | – | – | – | – | – | – | – | – | –
CCC1(C(=O)NC2CCC2)CCN(c2ccc(-c3nc(-c4cnn([C@H]5CC[C@H](N6CCC(c7ccc(NC8CCC(=O)NC8=O)cc7Cl)CC6)CC5)c4)cn4ncc(C#N)c34)cn2)CC1 (single isomer, unassigned) [Compound 133, 1-[5-[6-[1-[4-[4-[2-chloro-4-[(2,6-dioxo-3-piperidyl)amino]phenyl]-1-piperidyl]cyclohexyl]pyrazol-4-yl]-3-cyano-pyrazolo[1,5-a]pyrazin-4-yl]-2-pyridyl]-N-cyclobutyl-4-ethyl-piperidine-4-carboxamide] | – | < 30 | < 0.05 | – | < 30 | < 0.05 | – | – | – | – | – | – | – | – | –
CCC1(C(=O)NC(C)C)CCN(c2ccc(-c3nc(-c4cnn(C5CCN(C(=O)CC6(O)CCN(c7cc(OC)c(NC8CCC(=O)NC8=O)cc7Cl)CC6)CC5)c4)cn4ncc(C#N)c34)cn2)CC1 (stereo not drawn) [Compound 90, 1-[5-[6-[1-[1-[2-[1-[2-chloro-4-[(2,6-dioxo-3-piperidyl)amino]-5-methoxy-phenyl]-4-hydroxy-4-piperidyl]acetyl]-4-piperidyl]pyrazol-4-yl]-3-cyano-pyrazolo[1,5-a]pyrazin-4-yl]-2-pyridyl]-4-ethyl-N-isopropyl-piperidine-4-carboxamide] | ++++ (<50 nM = ++++) | < 30 | < 0.05 | ++++ (<50 nM = ++++) | < 30 | < 0.05 | – | – | – | – | – | – | – | – | –
